Q: For `CCOc1ccccc1C(N)=O`, which solubility (mole fraction) (in acetonitrile, 293.15 K) is on record?
A: The solubility (mole fraction) was 0.00709.

Q: And the solubility (mole fraction) (in acetonitrile, 298.15 K)?
A: The solubility (mole fraction) was 0.0091.

Q: And the solubility (mole fraction) (in acetonitrile, 303.15 K)?
A: The solubility (mole fraction) was 0.0123.

Q: And the solubility (mole fraction) (in acetonitrile, 308.15 K)?
A: The solubility (mole fraction) was 0.0167.

Q: What about the solubility (mole fraction) (in acetonitrile, 313.15 K) of the same compound?
A: Its solubility (mole fraction) is 0.022.

Q: And the solubility (mole fraction) (in acetonitrile, 318.15 K)?
A: Its solubility (mole fraction) is 0.0285.

Q: What about the solubility (mole fraction) (in acetonitrile, 323.15 K) of the same compound?
A: Its solubility (mole fraction) is 0.0377.

Q: And the solubility (mole fraction) (in ethanol, 293.15 K)?
A: The solubility (mole fraction) was 0.0121.

Q: And the solubility (mole fraction) (in ethanol, 298.15 K)?
A: The solubility (mole fraction) was 0.0162.

Q: What about the solubility (mole fraction) (in ethanol, 303.15 K) of the same compound?
A: Its solubility (mole fraction) is 0.0198.

Q: What about the solubility (mole fraction) (in ethanol, 308.15 K) of the same compound?
A: The solubility (mole fraction) was 0.0252.

Q: What about the solubility (mole fraction) (in ethanol, 313.15 K) of the same compound?
A: Its solubility (mole fraction) is 0.0313.

Q: And the solubility (mole fraction) (in ethanol, 318.15 K)?
A: The solubility (mole fraction) was 0.0392.

Q: What about the solubility (mole fraction) (in ethanol, 323.15 K) of the same compound?
A: The solubility (mole fraction) was 0.0472.

Q: And the solubility (mole fraction) (in isopropanol, 293.15 K)?
A: Its solubility (mole fraction) is 0.0097.

Q: What about the solubility (mole fraction) (in isopropanol, 298.15 K) of the same compound?
A: The solubility (mole fraction) was 0.0125.

Q: And the solubility (mole fraction) (in isopropanol, 303.15 K)?
A: The solubility (mole fraction) was 0.0155.

Q: And the solubility (mole fraction) (in isopropanol, 308.15 K)?
A: The solubility (mole fraction) was 0.0189.

Q: What about the solubility (mole fraction) (in isopropanol, 313.15 K) of the same compound?
A: Its solubility (mole fraction) is 0.024.

Q: What about the solubility (mole fraction) (in isopropanol, 318.15 K) of the same compound?
A: Its solubility (mole fraction) is 0.0304.

Q: And the solubility (mole fraction) (in isopropanol, 323.15 K)?
A: Its solubility (mole fraction) is 0.0391.

Q: And the solubility (mole fraction) (in methanol, 293.15 K)?
A: Its solubility (mole fraction) is 0.016.

Q: And the solubility (mole fraction) (in methanol, 298.15 K)?
A: The solubility (mole fraction) was 0.02.

Q: What about the solubility (mole fraction) (in methanol, 303.15 K) of the same compound?
A: Its solubility (mole fraction) is 0.0252.

Q: And the solubility (mole fraction) (in methanol, 308.15 K)?
A: Its solubility (mole fraction) is 0.0306.

Q: What about the solubility (mole fraction) (in methanol, 313.15 K) of the same compound?
A: The solubility (mole fraction) was 0.0392.

Q: And the solubility (mole fraction) (in methanol, 318.15 K)?
A: The solubility (mole fraction) was 0.0484.

Q: And the solubility (mole fraction) (in methanol, 323.15 K)?
A: The solubility (mole fraction) was 0.0596.

— BigSolDB 2.1
